Like-named read-outs stand apart in the source and are kept apart here.

For this assay, the target named is T1, human β3 adrenergic receptor (Homo sapiens, UniProt P13945).
T1 construct: expressed in transfected cells; host or cells: Chinese hamster ovary (CHO) cells, stably transfected
The experiment in a line: Functional assay: cAMP production (LANCE TR-FRET) in CHO cells stably transfected with cloned β3 adrenergic receptor. Type of assay: cell-based. The procedure: Chinese hamster ovary (CHO) cells, stably transfected with the cloned β-adrenergic receptor (β1, β2 or β3) are harvested after 3 days of subculturing. Harvesting of cells is done with Enzyme-free Dissociation Media (Specialty Media). Cells are then counted and resuspended in assay buffer (Hank's Balanced salt solution supplemented with 5 mM HEPES, 0.1% BSA) containing a phosphodiesterase inhibitor (IBMX, 0.6 mM). The reaction is initiated by mixing 6,000 cells in 6 μL with 6 μL Alexa Fluor labeled cAMP antibody (LANCE™ kit) which is then added to an assay well containing 12 μL of compound (diluted in assay buffer to 2× final concentration). The reaction proceeds for 30 min at room temperature and is terminated by the addition of 24 μL detection buffer (LANCE™ kit). The assay plate is then incubated for 1 h at room temperature and time-resolved fluorescence measured on a Perkin Elmer Envision reader or equivalent. The unknown cAMP level is determined by comparing fluorescence levels to a cAMP standard curve.
The non-selective, full agonist β-adrenergic ligand isoproterenol is used at all three receptors to determine maximal stimulation. […] Data are analyzed using Microsoft Excel and Graphpad Prism or an internally developed data analysis software package.

Where [1] appears, read: Table 5, read-out: Human β3 Functional.

T1 sequence (P13945 whole entry): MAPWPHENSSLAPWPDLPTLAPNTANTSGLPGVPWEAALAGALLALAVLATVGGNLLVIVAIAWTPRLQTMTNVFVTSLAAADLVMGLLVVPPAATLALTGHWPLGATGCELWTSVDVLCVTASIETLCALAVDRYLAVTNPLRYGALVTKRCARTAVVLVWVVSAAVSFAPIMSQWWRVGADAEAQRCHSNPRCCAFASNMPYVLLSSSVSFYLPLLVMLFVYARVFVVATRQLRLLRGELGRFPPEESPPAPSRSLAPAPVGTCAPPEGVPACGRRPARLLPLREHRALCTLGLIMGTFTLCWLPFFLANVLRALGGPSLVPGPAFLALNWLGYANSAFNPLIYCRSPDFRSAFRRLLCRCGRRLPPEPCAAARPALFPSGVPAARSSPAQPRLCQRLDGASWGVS

As to `Nc1nc2c(s1)CCC2C(=O)Nc1ccc(C[C@@H]2CC[C@H]([C@H](O)c3ccccc3)N2)cc1` (single isomer, unassigned) [Example 4], the EC50 (given as a range, cAMP, CHO cells, read-out: human β3 functional activity) is under 1 nM.
`O=C(Nc1ccc(C[C@@H]2CC[C@H]([C@H](O)c3ccccc3)N2)cc1)C1CCc2ccccc2C1` (single isomer, unassigned) [Example 108]: the EC50 under setting [1] lay within 101 to 1000 nM.
On the same count and under the same terms, the figure for `O=C(Nc1ccc(C[C@@H]2CC[C@H]([C@H](O)c3ccccc3)N2)cc1)C1CCc2ccccc2C1` (single isomer, unassigned) [Example 109] is 1000 to 3000 nM.
Same read-out and setting: the figure for `O=C(Nc1ccc(C[C@@H]2CC[C@H]([C@H](O)c3ccccc3)N2)cc1)C1CCc2ccccc21` (single isomer, unassigned) [Example 110] is 11 to 100 nM; for `O=C(Nc1ccc(C[C@@H]2CC[C@H]([C@H](O)c3ccccc3)N2)cc1)C1CCc2ccccc21` (single isomer, unassigned) [Example 111] it is 101 to 1000 nM.
Still for that read-out and setting: the figure for `O=C(Nc1ccc(C[C@@H]2CC[C@H]([C@H](O)c3ccccc3)N2)cc1)C1CCCc2ccccc21` (single isomer, unassigned) [Example 112] is 11 to 100 nM; for `O=C(Nc1ccc(C[C@@H]2CC[C@H]([C@H](O)c3ccccc3)N2)cc1)C1CCCc2ccccc21` (single isomer, unassigned) [Example 113] it is 101 to 1000 nM; for `Nc1nc2c(s1)CCCC2C(=O)Nc1ccc(C[C@@H]2CC[C@H]([C@H](O)c3ccccc3)N2)cc1` (single isomer, unassigned) [Example 116] it is 1 to 10 nM.
For the compound `Nc1nc2c(s1)CCCC2C(=O)Nc1ccc(C[C@@H]2CC[C@H]([C@H](O)c3ccccc3)N2)cc1` (single isomer, unassigned) [Example 117], the EC50 under setting [1] was under 1 nM.
The same measure, in the same setting: the figure for `Cc1nc2c(s1)CCC2C(=O)Nc1ccc(C[C@@H]2CC[C@H]([C@H](O)c3ccccc3)N2)cc1` (single isomer, unassigned) [Example 118] is 1 to 10 nM; for `Cc1nc2c(s1)CCC2C(=O)Nc1ccc(C[C@@H]2CC[C@H]([C@H](O)c3ccccc3)N2)cc1` (single isomer, unassigned) [Example 119] it is under 1 nM; for `Cc1nc2c(s1)CCCC2C(=O)Nc1ccc(C[C@@H]2CC[C@H]([C@H](O)c3ccccc3)N2)cc1` (single isomer, unassigned) [Example 120] it is 11 to 100 nM.
Turning to `Cc1nc2c(s1)CCCC2C(=O)Nc1ccc(C[C@@H]2CC[C@H]([C@H](O)c3ccccc3)N2)cc1` (single isomer, unassigned) [Example 121], under setting [1], the EC50 lay within 1 to 10 nM.
The same measure, in the same setting: the value for `O=C(Nc1ccc(C[C@@H]2CC[C@H]([C@H](O)c3ccccc3)N2)cc1)C1CCc2sc(-c3ccc(F)cc3)nc21` (single isomer, unassigned) [Example 122] was 101 to 1000 nM; that for `O=C(Nc1ccc(C[C@@H]2CC[C@H]([C@H](O)c3ccccc3)N2)cc1)C1CCc2sc(-c3ccc(F)cc3)nc21` (single isomer, unassigned) [Example 123] was 101 to 1000 nM.
Still for that read-out and setting: the figure for `Cc1nnc2n1CCC2C(=O)Nc1ccc(C[C@@H]2CC[C@H]([C@H](O)c3ccccc3)N2)cc1` (single isomer, unassigned) [Example 124] is 1 to 10 nM; for `Cc1nnc2n1CCC2C(=O)Nc1ccc(C[C@@H]2CC[C@H]([C@H](O)c3ccccc3)N2)cc1` (single isomer, unassigned) [Example 125] it is 1 to 10 nM; for `Cc1nnc2n1C(C(=O)Nc1ccc(C[C@@H]3CC[C@H]([C@H](O)c4ccccc4)N3)cc1)CC2` (single isomer, unassigned) [Example 126] it is 11 to 100 nM.
Same read-out and setting: the figure for `Cc1nnc2n1C(C(=O)Nc1ccc(C[C@@H]3CC[C@H]([C@H](O)c4ccccc4)N3)cc1)CC2` (single isomer, unassigned) [Example 127] is 101 to 1000 nM; for `O=C(Nc1ccc(C[C@@H]2CC[C@H]([C@H](O)c3ccccc3)N2)cc1)C1CCc2ncnn21` (single isomer, unassigned) [Example 128] it is 11 to 100 nM.
`O=C(Nc1ccc(C[C@@H]2CC[C@H]([C@H](O)c3ccccc3)N2)cc1)C1CCc2ncnn21` (single isomer, unassigned) [Example 129]: the EC50 under setting [1] is 11 to 100 nM.
As to `O=C(Nc1ccc(C[C@@H]2CC[C@H]([C@H](O)c3ccccc3)N2)cc1)C1CCn2nnnc21` (single isomer, unassigned) [Example 130], the EC50 under setting [1] is 1 to 10 nM.
Still for that read-out and setting: the value for `O=C(Nc1ccc(C[C@@H]2CC[C@H]([C@H](O)c3ccccc3)N2)cc1)C1CCn2nnnc21` (single isomer, unassigned) [Example 131] was 1 to 10 nM; that for `O=C(Nc1ccc(C[C@@H]2CC[C@H]([C@H](O)c3ccccc3)N2)cc1)C1CCc2cccnc21` (single isomer, unassigned) [Example 132] was under 1 nM; that for `O=C(Nc1ccc(C[C@@H]2CC[C@H]([C@H](O)c3ccccc3)N2)cc1)C1CCc2cccnc21` (single isomer, unassigned) [Example 133] was under 1 nM.
For `O=C(Nc1ccc(C[C@@H]2CC[C@H]([C@H](O)c3ccccc3)N2)cc1)C1CCc2ccc(=O)[nH]c21` (single isomer, unassigned) [Example 134], the EC50 under setting [1] is 101 to 1000 nM.
Same read-out and setting: the value for `O=C(Nc1ccc(C[C@@H]2CC[C@H]([C@H](O)c3ccccc3)N2)cc1)C1CCc2ccc(=O)[nH]c21` (single isomer, unassigned) [Example 135] was 101 to 1000 nM; that for `O=C(Nc1ccc(C[C@@H]2CC[C@H]([C@H](O)c3ccccc3)N2)cc1)C1CCc2cn[nH]c21` (single isomer, unassigned) [Example 136] was 11 to 100 nM.
In the case of `O=C(Nc1ccc(C[C@@H]2CC[C@H]([C@H](O)c3ccccc3)N2)cc1)C1CCc2cn[nH]c21` (single isomer, unassigned) [Example 137], under setting [1], the EC50 fell in the range of 11 to 100 nM.
With `Cc1n[nH]c2c1CCC2C(=O)Nc1ccc(C[C@@H]2CC[C@H]([C@H](O)c3ccccc3)N2)cc1` (single isomer, unassigned) [Example 138], the EC50 under setting [1] lay within 11 to 100 nM.
Same read-out and setting: the value for `Cc1n[nH]c2c1CCC2C(=O)Nc1ccc(C[C@@H]2CC[C@H]([C@H](O)c3ccccc3)N2)cc1` (single isomer, unassigned) [Example 139] was 1 to 10 nM.
Consider `Cc1noc2c1CCC2C(=O)Nc1ccc(C[C@@H]2CC[C@H]([C@H](O)c3ccccc3)N2)cc1` (single isomer, unassigned) [Example 140], for which the EC50 under setting [1] lay within 11 to 100 nM.
Take `Cc1noc2c1CCC2C(=O)Nc1ccc(C[C@@H]2CC[C@H]([C@H](O)c3ccccc3)N2)cc1` (single isomer, unassigned) [Example 141]: under setting [1], the EC50 is 1 to 10 nM.
On the same count and under the same terms, the value for `O=C(O)c1nc2c(s1)CCC2C(=O)Nc1ccc(C[C@@H]2CC[C@H]([C@H](O)c3ccccc3)N2)cc1` (single isomer, unassigned) [Example 142] was 101 to 1000 nM; that for `O=C(O)c1nc2c(s1)CCC2C(=O)Nc1ccc(C[C@@H]2CC[C@H]([C@H](O)c3ccccc3)N2)cc1` (single isomer, unassigned) [Example 143] was 11 to 100 nM.
Same read-out and setting: the figure for `O=C(Nc1ccc(C[C@@H]2CC[C@H]([C@H](O)c3ccccc3)N2)cc1)C1CCc2sc(Br)nc21` (single isomer, unassigned) [Example 144] is 1 to 10 nM; for `O=C(Nc1ccc(C[C@@H]2CC[C@H]([C@H](O)c3ccccc3)N2)cc1)C1CCc2sc(Br)nc21` (single isomer, unassigned) [Example 145] it is under 1 nM.
On the same count and under the same terms, the figure for `O=C(Nc1ccc(C[C@@H]2CC[C@H]([C@H](O)c3ccccc3)N2)cc1)C1CCc2sc(F)nc21` (single isomer, unassigned) [Example 146] is under 1 nM; for `O=C(Nc1ccc(C[C@@H]2CC[C@H]([C@H](O)c3ccccc3)N2)cc1)C1CCc2sc(F)nc21` (single isomer, unassigned) [Example 147] it is under 1 nM; for `Cc1nnc2n1CCCC2C(=O)Nc1ccc(C[C@@H]2CC[C@H]([C@H](O)c3ccccc3)N2)cc1` (single isomer, unassigned) [Example 150] it is 1 to 10 nM.
`Cc1nnc2n1CCCC2C(=O)Nc1ccc(C[C@@H]2CC[C@H]([C@H](O)c3ccccc3)N2)cc1` (single isomer, unassigned) [Example 151]: under setting [1], the EC50 fell in the range of 1 to 10 nM.
With `O=C(Nc1ccc(C[C@@H]2CC[C@H]([C@H](O)c3ccccc3)N2)cc1)C1CCCn2nnnc21` (single isomer, unassigned) [Example 152], the EC50 under setting [1] was in the range of 11 to 100 nM.
On the same count and under the same terms, the figure for `O=C(Nc1ccc(C[C@@H]2CC[C@H]([C@H](O)c3ccccc3)N2)cc1)C1CCCn2nnnc21` (single isomer, unassigned) [Example 153] is 11 to 100 nM; for `O=C(Nc1ccc(C[C@@H]2CC[C@H]([C@H](O)c3ccccc3)N2)cc1)C1CCCn2ccnc21` (single isomer, unassigned) [Example 154] it is 1000 to 3000 nM; for `O=C(Nc1ccc(C[C@@H]2CC[C@H]([C@H](O)c3ccccc3)N2)cc1)C1CCCn2ccnc21` (single isomer, unassigned) [Example 155] it is 101 to 1000 nM.
Turning to `O=C(Nc1ccc(C[C@@H]2CC[C@H]([C@H](O)c3ccccc3)N2)cc1)C1CCCc2ccnn21` (single isomer, unassigned) [Example 156], the EC50 under setting [1] lay in the range of 1 to 10 nM.
